Test results as given in the NIST ThermoML archive (doi:10.1016/j.jct.2017.07.011).

Assay: xn = mol fraction of the nth substance listed
Conditions: 100 kPa, Liquid, Vibrating tube method

CCC(C)(C)O [2-methylbutan-2-ol] + O
mass density [kg/m3]
Conditions	x1 = 0.00122	x1 = 0.00255	x1 = 0.00412	x1 = 0.00507	x1 = 0.00607	x1 = 0.0079	x1 = 0.00994	x1 = 0.01252	x1 = 0.01488	x1 = 1
273.65 K	999.033	998.16	997.224	996.687	996.151	995.216	994.277	993.23	992.364	826.7
274.15 K	999.058	998.181	997.247	996.703	996.17	995.235	994.284	993.232	992.356	826.3
274.65 K	999.08	998.206	997.266	996.721	996.184	995.25	994.296	993.233	992.353	825.8
275.15 K	999.099	998.222	997.286	996.74	996.2	995.262	994.3	993.231	992.341	825.4
275.65 K	999.114	998.237	997.295	996.749	996.207	995.267	994.301	993.227	992.328	824.9
276.15 K	999.13	998.247	997.305	996.76	996.213	995.266	994.297	993.215	992.313	824.5
276.65 K	999.132	998.253	997.309	996.765	996.216	995.269	994.293	993.203	992.291	824
277.15 K	999.134	998.251	997.307	996.759	996.215	995.258	994.279	993.181	992.265	823.5
277.65 K	999.129	998.246	997.299	996.748	996.2	995.243	994.261	993.157	992.23	823.1
278.15 K	999.126	998.235	997.295	996.741	996.193	995.233	994.246	993.13	992.197	822.6
278.65 K	999.113	998.23	997.279	996.728	996.177	995.217	994.22	993.102	992.159	822.2
279.15 K	999.102	998.216	997.265	996.713	996.158	995.193	994.199	993.072	992.123	821.7
279.65 K	999.075	998.186	997.235	996.681	996.124	995.158	994.162	993.023	992.067	821.3
280.15 K	999.056	998.17	997.213	996.659	996.101	995.132	994.13	992.984	992.025	820.8
280.65 K	999.032	998.146	997.189	996.631	996.074	995.095	994.093	992.943	991.972	820.3
281.15 K	999.006	998.115	997.154	996.599	996.039	995.06	994.049	992.894	991.918	819.9
281.65 K	998.97	998.079	997.123	996.561	996	995.021	994.007	992.846	991.86	819.4
282.15 K	998.939	998.044	997.086	996.522	995.962	994.976	993.958	992.79	991.8	819

CCCC(C)O (stereo not given) [pentan-2-ol] + O
mass density [kg/m3]
Conditions	x1 = 0.00105	x1 = 0.0021	x1 = 0.00413	x1 = 0.00599	x1 = 0.00677	x1 = 0.00857	x1 = 1
273.65 K	999.095	998.354	997.02	995.922	995.484	994.604	824
274.15 K	999.119	998.377	997.038	995.939	995.499	994.61	823.6
274.65 K	999.148	998.4	997.057	995.957	995.51	994.622	823.2
275.15 K	999.16	998.416	997.073	995.965	995.523	994.625	822.8
275.65 K	999.177	998.43	997.08	995.972	995.524	994.627	822.5
276.15 K	999.187	998.44	997.09	995.972	995.527	994.622	822.1
276.65 K	999.193	998.445	997.092	995.974	995.524	994.619	821.7
277.15 K	999.185	998.444	997.082	995.964	995.512	994.604	821.3
277.65 K	999.19	998.439	997.076	995.952	995.498	994.583	820.9
278.15 K	999.187	998.426	997.066	995.938	995.484	994.566	820.6
278.65 K	999.177	998.416	997.053	995.923	995.466	994.542	820.2
279.15 K	999.163	998.401	997.037	995.898	995.439	994.519	819.8
279.65 K	999.133	998.376	997.002	995.867	995.403	994.471	819.4
280.15 K	999.115	998.36	996.978	995.84	995.375	994.439	819.1
280.65 K	999.09	998.332	996.951	995.806	995.342	994.408	818.7
281.15 K	999.058	998.301	996.915	995.769	995.301	994.365	818.3
281.65 K	999.025	998.267	996.878	995.731	995.261	994.318	817.9
282.15 K	998.992	998.234	996.841	995.688	995.214	994.273	817.5

CCC(O)CC [3-pentanol] + O
mass density [kg/m3]
Conditions	x1 = 0.00117	x1 = 0.00216	x1 = 0.00361	x1 = 0.00517	x1 = 0.00616	x1 = 0.00773	x1 = 0.00866	x1 = 1
273.65 K	999.121	998.483	997.636	996.791	996.228	995.539	995.114	835.7
274.15 K	999.145	998.504	997.655	996.809	996.243	995.55	995.121	835.3
274.65 K	999.166	998.525	997.681	996.827	996.257	995.562	995.131	834.9
275.15 K	999.182	998.545	997.694	996.837	996.27	995.568	995.137	834.5
275.65 K	999.2	998.559	997.704	996.842	996.271	995.572	995.134	834.1
276.15 K	999.21	998.568	997.714	996.849	996.277	995.571	995.134	833.7
276.65 K	999.216	998.574	997.718	996.852	996.271	995.565	995.128	833.3
277.15 K	999.214	998.574	997.712	996.843	996.263	995.555	995.116	832.9
277.65 K	999.21	998.562	997.704	996.832	996.251	995.537	995.092	832.5
278.15 K	999.206	998.556	997.698	996.822	996.238	995.523	995.08	832.1
278.65 K	999.194	998.549	997.686	996.805	996.219	995.503	995.05	831.7
279.15 K	999.182	998.533	997.668	996.789	996.197	995.475	995.023	831.3
279.65 K	999.159	998.5	997.635	996.752	996.159	995.434	994.98	830.9
280.15 K	999.14	998.48	997.609	996.729	996.134	995.406	994.948	830.5
280.65 K	999.119	998.457	997.582	996.698	996.103	995.368	994.912	830.1
281.15 K	999.084	998.424	997.551	996.663	996.061	995.327	994.867	829.7
281.65 K	999.053	998.388	997.515	996.619	996.024	995.286	994.819	829.3
282.15 K	999.017	998.353	997.476	996.581	995.981	995.24	994.77	828.9
